Data on 17 compounds can be found in PMC2853924 (Journal of medicinal chemistry, 2010).

Assay [1] addresses T1, Torpedo VAChT (Tetronarce californica, UniProt P81721).
T1 sequence (P81721 1-515): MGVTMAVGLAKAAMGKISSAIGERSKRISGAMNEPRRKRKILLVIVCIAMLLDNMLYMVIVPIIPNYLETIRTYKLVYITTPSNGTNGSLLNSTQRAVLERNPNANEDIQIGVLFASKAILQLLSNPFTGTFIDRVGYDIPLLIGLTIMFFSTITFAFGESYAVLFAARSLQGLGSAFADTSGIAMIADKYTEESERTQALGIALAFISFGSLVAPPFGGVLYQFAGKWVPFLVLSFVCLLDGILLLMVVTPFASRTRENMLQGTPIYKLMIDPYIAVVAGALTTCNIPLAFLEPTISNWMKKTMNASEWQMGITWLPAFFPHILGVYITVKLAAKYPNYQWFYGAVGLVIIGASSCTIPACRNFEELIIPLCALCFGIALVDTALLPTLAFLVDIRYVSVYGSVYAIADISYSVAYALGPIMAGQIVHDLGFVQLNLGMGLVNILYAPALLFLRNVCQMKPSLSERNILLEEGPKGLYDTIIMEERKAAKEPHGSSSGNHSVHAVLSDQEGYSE
The note with it: for VAChT/σ selectivity (in words): based on selectivity index; for VAChT/sigma selectivity index (selectivity ratio): Ki (σ1 or σ2)/Ki (VAChT).

Assay [2] deals with T1, Torpedo VAChT. The note with it: read-out: VAChT (Ki [nM]), cited from earlier work.
The next assay concerns the target σ1 receptor (Cavia porcellus, UniProt Q60492). It is filed as binding, guinea pig.
Another assay deals with T2, σ2 receptor (Rattus norvegicus, UniProt Q5U3Y7).
T2 sequence (Q5U3Y7 1-176): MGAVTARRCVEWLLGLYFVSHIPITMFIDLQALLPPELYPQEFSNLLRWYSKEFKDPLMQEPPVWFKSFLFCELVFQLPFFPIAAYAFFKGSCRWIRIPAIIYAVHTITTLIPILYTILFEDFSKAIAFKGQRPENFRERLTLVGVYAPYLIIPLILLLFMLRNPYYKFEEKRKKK
Kind of assay: σ2 receptor binding assay, [3H]DTG, rat liver membrane homogenates.

Like-named read-outs stand apart in the source and are kept apart here. Some results are limits rather than exact numbers.

Chain of σ1 receptor (Q60492 whole entry): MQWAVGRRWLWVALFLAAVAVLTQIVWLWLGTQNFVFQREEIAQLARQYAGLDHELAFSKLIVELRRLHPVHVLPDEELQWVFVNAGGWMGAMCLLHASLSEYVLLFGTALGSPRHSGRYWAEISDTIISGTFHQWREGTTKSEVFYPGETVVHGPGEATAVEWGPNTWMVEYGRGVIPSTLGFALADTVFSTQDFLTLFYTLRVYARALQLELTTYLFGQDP

On to `Cl.O=C(c1ccccc1)C1(c2ccccc2)CCN([C@@H]2Cc3ccccc3C[C@H]2O)CC1` (relative stereo) [Compound 22a, trans-3-(4-Benzoyl-4-phenylpiperidinyl)-2-hydroxy-1,2,3,4-tetrahydronaphthalene hydrochloride], for which the “fold less potent at VAChT than benzovesamicol (2)” value at Torpedo VAChT [1] (relative to benzovesamicol (2)) worked out at 30 fold.
For the compound `O=C(c1ccc(F)cc1)C1CCN([C@@H]2Cc3ccccc3C[C@H]2O)CC1` (relative stereo) [Compound 28b, trans-3-[4-(4-fluorobenzoyl)piperidinyl]-2-hydroxy-1,2,3,4-tetrahydronaphthalene], on Torpedo VAChT [2], the inhibition constant Ki was 2.7 ± 0.4 nM.
Consider `Cl.O=C(c1ccc(Br)s1)C1CCN([C@@H]2Cc3ccccc3C[C@H]2O)CC1` (relative stereo) [Compound 28g, trans-3-[4-(5-Bromothienylcarbonyl)piperidinyl]-2-hydroxy-1,2,3,4-tetrahydronaphthalene hydrochloride], for which the “VAChT/σ selectivity (in words)” value on Torpedo VAChT [1] is listed as “high VAChT/σ selectivity”.
Same read-out and setting: the value for `Cl.O=C(c1ccc(I)s1)C1CCN([C@@H]2Cc3ccccc3C[C@H]2O)CC1` (relative stereo) [Compound 28h, trans-3-[4-(5-Iodothienylcarbonyl)piperidinyl]-2-hydroxy-1,2,3,4-tetrahydronaphthalene hydrochloride] was “high VAChT/σ selectivity”.
As to `Cl.O=C(C1CCN([C@@H]2Cc3ccccc3C[C@H]2O)CC1)N1CCCCC1` (relative stereo) [Compound 34a, Trans-3-[4-(piperidyl)carbonylpiperidyl]-2-hydroxy-1,2,3,4-tetrahydronaphthalene hydrochloride], the “Selectivity Index Ki-σ1/Ki-VAChT” value at σ1 receptor (Ki (σ1)/Ki (VAChT)) is given as over 32.3. The “Selectivity Index Ki-σ2/Ki-VAChT” value at σ2 receptor is given as over 32.3.
For the compound `Cl.O=C(C1CCN([C@@H]2Cc3ccccc3C[C@H]2O)CC1)N1CCC(c2ccccc2)CC1` (relative stereo) [Compound 34b, trans-3-[4-(4-Phenylpiperidyl)carbonylpiperidyl]-2-hydroxy-1,2,3,4-tetrahydronaphthalene hydrochloride], the “Selectivity Index Ki-σ2/Ki-VAChT” value on σ2 receptor is reported as over 483.1.
On to `Cl.O=C(C1CCN([C@@H]2Cc3ccccc3C[C@H]2O)CC1)N1CCC(Cc2ccccc2)CC1` (relative stereo) [Compound 34c, trans-3-[4-(4-Benzylpiperidyl)carbonylpiperidyl]-2-hydroxy-1,2,3,4-tetrahydronaphthalene hydrochloride], for which the “Selectivity Index Ki-σ2/Ki-VAChT” value at σ2 receptor is over 416.7.
Consider `Cl.O=C(C1CCN([C@@H]2Cc3ccccc3C[C@H]2O)CC1)N1CCN(Cc2ccccc2)CC1` (relative stereo) [Compound 34d, trans-3-[4-(4-Benzylpiperazinyl)carbonylpiperidyl]-2-hydroxy-1,2,3,4-tetrahydronaphthalene hydrochloride], for which the “Selectivity Index Ki-σ2/Ki-VAChT” value on σ2 receptor is over 480.8. The “VAChT/σ selectivity (in words)” value at Torpedo VAChT [1] is listed as “moderate selectivity”.
Turning to `CCOC(=O)C1CCN([C@@H]2Cc3ccccc3C[C@H]2O)CC1.Cl` (relative stereo) [Compound 34e, trans-3-[4-Ethoxycarbonylpiperidyl]-2-hydroxy-1,2,3,4-tetrahydronaphthalene hydrochloride], the “Selectivity Index Ki-σ1/Ki-VAChT” value on σ1 receptor (Ki (σ1)/Ki (VAChT)) is on record as over 14.6. In addition, the “Selectivity Index Ki-σ2/Ki-VAChT” value on σ2 receptor is given as over 14.6.
Consider `Nc1cccc2c1CC(N1CCC(c3ccccc3)CC1)C(O)C2` (stereo not shown) [Compound 3, reference compound], for which, on Torpedo VAChT [2] (Torpedo synaptic vesicles), the Ki was 0.0065 ± 0.0005 nM.
`Cl.O=C(c1ccccc1)C1(c2ccccc2)CCN([C@@H]2CCCC[C@H]2O)CC1` [Compound 20, 2-(4-Benzoyl-4-phenylpiperidinyl)cyclohexanol hydrochloride]: the “fold lower affinity for VAChT than vesamicol (1)” value on Torpedo VAChT [1] (relative to vesamicol (1)) turned out to be 35 fold.
In the case of `Cl.O=C(c1ccc(I)s1)C1CCN([C@@H]2CCCC[C@H]2O)CC1` [Compound 27h, 2-[4-(5-Iodothien-2-yl)carbonylpiperidinyl]cyclohexanol hydrochloride], on σ1 receptor, the “affinity for σ1 receptors (class in words)” value is “high (high (Ki = 1–10 nM))”.
For the compound `Cl.Nc1cccc2c1C[C@@H](N1CCC(C(=O)c3ccc(F)cc3)CC1)[C@H](O)C2` [Compound 30b, 5-Amino-3-[4-(p-fluorobenzoyl)piperidinyl]-2-hydroxy-1,2,3,4,-tetrahydronaphthalene hydrochloride], the “Selectivity Index Ki-σ1/Ki-VAChT” value at σ1 receptor is over 416.7. The “Selectivity Index Ki-σ2/Ki-VAChT” value on σ2 receptor is on record as over 416.7.
Consider `Cl.Nc1cccc2c1C[C@@H](N1CCC(C(=O)c3ccc(Br)cc3)CC1)[C@H](O)C2` [Compound 30c, 5-Amino-3-[4-(p-bromobenzoyl)piperidinyl]-2-hydroxy-1,2,3,4,-tetrahydronaphthalene hydrochloride], for which the “VAChT/sigma selectivity index (selectivity ratio)” value on Torpedo VAChT [1] is “greater than 500”.
For `Cl.Nc1cccc2c1C[C@@H](N1CCC(C(=O)c3cccs3)CC1)[C@H](O)C2` [Compound 30f, 5-Amino-3-[4-(thien-2-yl)carbonylpiperidyl]-2-hydroxy-1,2,3,4-tetrahydronaphthalene hydrochloride], at σ1 receptor (Ki (σ1)/Ki (VAChT)), the “Selectivity Index Ki-σ1/Ki-VAChT” value was over 204.1. The “Selectivity Index Ki-σ2/Ki-VAChT” value on σ2 receptor is over 204.1.
Take `Cl.Nc1cccc2c1C[C@@H](N1CCC(C(=O)c3ccc(Br)s3)CC1)[C@H](O)C2` [Compound 30g, 5-Amino-3-[4-(5-bromothien-2-yl)carbonylpiperidinyl]-2-hydroxy-1,2,3,4-tetrahydronaphthalene hydrochloride]: the “Selectivity Index Ki-σ1/Ki-VAChT” value at σ1 receptor was over 2439.0. The “Selectivity Index Ki-σ2/Ki-VAChT” value on σ2 receptor is over 2439.0. For the same compound, the “VAChT/sigma selectivity index (selectivity ratio)” value on Torpedo VAChT [1] is listed as “greater than 1000”.
Regarding `Cl.Nc1cccc2c1C[C@@H](O)[C@H](N1CCC(C(=O)c3cccs3)CC1)C2` [Compound 31f, 8-Amino-3-[4-(thien-2-yl)carbonylpiperidyl]-2-hydroxy-1,2,3,4-tetrahydronaphthalene hydrochloride], at σ1 receptor, the “Selectivity Index Ki-σ1/Ki-VAChT” value is over 7.5. For the same compound, the “Selectivity Index Ki-σ2/Ki-VAChT” value on σ2 receptor is reported as over 7.5.

By Ki is commonly meant a dissociation constant, usually derived from enzyme kinetics or from competition with a known ligand.
